Experimental data published in patent US10912815B2, “Inhibitors of mitochondrial fission and methods of use thereof” (The Board of Trustees of the Leland Stanford Junior …, priority 2011, dated 2021).
“Also recorded” adds a separate entry of the source. No end group written: not given here.

Tests used:
dynamin-1 = biological target: T1, dynamin-1 (Homo sapiens, UniProt Q05193); experiment: In vitro GTPase assay, recombinant dynamin-1; format: biochemical; details: recombinant dynamin-1 25 ng, FIG. 2B
T1 sequence (Q05193 1-864): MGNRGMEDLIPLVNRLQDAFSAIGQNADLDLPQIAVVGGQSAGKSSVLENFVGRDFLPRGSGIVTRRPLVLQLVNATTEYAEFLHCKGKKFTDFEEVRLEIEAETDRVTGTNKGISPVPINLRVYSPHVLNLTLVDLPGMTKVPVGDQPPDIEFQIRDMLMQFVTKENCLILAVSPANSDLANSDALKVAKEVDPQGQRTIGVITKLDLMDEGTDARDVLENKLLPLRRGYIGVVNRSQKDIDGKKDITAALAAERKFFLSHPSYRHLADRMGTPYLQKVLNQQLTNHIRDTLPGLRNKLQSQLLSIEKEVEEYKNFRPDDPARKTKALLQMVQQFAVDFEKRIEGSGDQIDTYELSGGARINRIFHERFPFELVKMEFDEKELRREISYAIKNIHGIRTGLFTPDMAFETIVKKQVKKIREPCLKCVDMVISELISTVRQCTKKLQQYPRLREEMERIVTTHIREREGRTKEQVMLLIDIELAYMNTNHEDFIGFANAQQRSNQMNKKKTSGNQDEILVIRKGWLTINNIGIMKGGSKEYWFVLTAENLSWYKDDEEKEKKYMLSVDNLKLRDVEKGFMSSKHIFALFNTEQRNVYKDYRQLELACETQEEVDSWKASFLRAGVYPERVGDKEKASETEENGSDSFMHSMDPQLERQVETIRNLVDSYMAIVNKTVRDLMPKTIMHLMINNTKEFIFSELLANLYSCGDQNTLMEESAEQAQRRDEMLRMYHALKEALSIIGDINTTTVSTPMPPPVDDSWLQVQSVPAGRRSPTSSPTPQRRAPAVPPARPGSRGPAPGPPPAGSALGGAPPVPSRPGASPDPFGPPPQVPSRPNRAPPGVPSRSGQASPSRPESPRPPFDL
Description: First, mitochondrial fission inhibitor constructs were tested to determine what, if any, effects each peptide had on enzyme (GTPase) activity. Recombinant protein Drp1, Mfn1, OPA1 or dynamin-1 (25 ng) was incubated with the indicated modulator peptides for 30 min. GTPase activity was assayed in vitro using a GTPase assay kit (Innova Biosciences, Littleton, USA, or Novus Biologicals, Littleton, Colo.) according to manufacturer's instructions.

Drp1 Ser616 = Drp1 Ser616 phosphorylation in SH-SY5Y cells; format: cell-based, human
Description: Cultured human SH-SY5Y neuronal cells were treated with peptide P110 (1 μM) for 30 min prior to 1 hr incubation in the absence or presence of MPP+(1-methyl-4-phenylpyridinium, a specific mitochondrial complex I inhibitor) (2 mM) or CCCP (carbonyl cyanide m-chloro phenyl hydrazone) (10 μM). Western blot analysis of mitochondrial fractions was determined by the indicated antibodies. VDAC was used as a loading control.
The function of Drp1 is regulated at least in part by phosphorylation events.

[1] = system: isolated mouse liver mitochondria with Drp1 recombinant protein; experiment: Superoxide production of isolated mouse liver mitochondria after addition of recombinant Drp1; format: biochemical; details: isolated mouse liver mitochondria 50 μg, Drp1 50 ng, P110 1 μM, p<0.05, n=3, FIG. 6C
Description: Mitochondrial membrane potential was also determined using TMRM (tetramethylrhodamine methylester). Fifty μg of mitochondria were incubated with recombinant Drp1 (50 ng) followed by incubation with TMRM (0.5 μM) in the presence or absence of P110 (1 μM) or NAC (2.5 mM). Fluoresence detection was performed using black 96-well plates in a fluorescence microplate reader at 560 nm excitation and 690 nm emission and potential was assessed by quenching of the fluorescent signal. The data are presented as mean±S.E. of percentage relative to control mitochondria from three independent experiments (FIG. 6B, #, p<0.05 vs. control cells; *, p<0.05; **, P<0.01 vs. MPP+- or CCCP-treated cells). Isolated mouse liver mitochondria (50 μg) were incubated with Drp1 recombinant protein (50 ng) in the presence or absence of P110 (1 μM). A kinetic change of mitochondrial superoxide production was determined by using MITOSOX™ (red mitochondrial superoxide indicator). […] Mitochondrial membrane potential of isolated mouse liver mitochondria was determined by TMRM, as described above, in the indicated groups. […] Protein levels of cytochrome c in the mitochondria were determined by western blot analysis with anti-cytochrome c antibodies in the indicated groups (insert, FIG. 6D). Total ROS production was determined by staining SH-SY5Y cells with CM2HDCFA (1 μM […] at 37° C.) in the indicated groups. […]

[2] = system: Primary rat dopaminergic neurons; experiment: Mitochondrial superoxide production in primary dopaminergic neurons exposed to MPP+; format: cell-based; details: P110 1 μM, MPP+ 1 μM, 2 hrs, FIG. 10A
Description: Primary rat dopaminergic neurons (cultured for 6 days) were treated without or with P110 (1 μM) followed by treatment with or without MPP+(1 μM). Two hrs following MPP+ treatment, the cells were stained with MITOSOX™ red (to measure mitochondrial superoxide production) and anti-TH antibody (a marker of dopaminergic neurons). Fifteen hrs after MPP+ treatment, cells were stained with anti-TH antibody and anti-Tom20 antibody (a marker of mitochondria).

Drp1/Fis1 interaction = Drp1/Fis1 interaction (Homo sapiens, UniProt O00429); experiment: Drp1-Fis1 interaction in cultured SH-SY5Y neuronal cells (crosslink, immunoprecipitation); format: cell-based; parameters: endogenous in cells; host or cells: SH-SY5Y; details: peptides 1 μM, FIG. 2E
Chain of Drp1/Fis1 interaction (O00429 whole entry): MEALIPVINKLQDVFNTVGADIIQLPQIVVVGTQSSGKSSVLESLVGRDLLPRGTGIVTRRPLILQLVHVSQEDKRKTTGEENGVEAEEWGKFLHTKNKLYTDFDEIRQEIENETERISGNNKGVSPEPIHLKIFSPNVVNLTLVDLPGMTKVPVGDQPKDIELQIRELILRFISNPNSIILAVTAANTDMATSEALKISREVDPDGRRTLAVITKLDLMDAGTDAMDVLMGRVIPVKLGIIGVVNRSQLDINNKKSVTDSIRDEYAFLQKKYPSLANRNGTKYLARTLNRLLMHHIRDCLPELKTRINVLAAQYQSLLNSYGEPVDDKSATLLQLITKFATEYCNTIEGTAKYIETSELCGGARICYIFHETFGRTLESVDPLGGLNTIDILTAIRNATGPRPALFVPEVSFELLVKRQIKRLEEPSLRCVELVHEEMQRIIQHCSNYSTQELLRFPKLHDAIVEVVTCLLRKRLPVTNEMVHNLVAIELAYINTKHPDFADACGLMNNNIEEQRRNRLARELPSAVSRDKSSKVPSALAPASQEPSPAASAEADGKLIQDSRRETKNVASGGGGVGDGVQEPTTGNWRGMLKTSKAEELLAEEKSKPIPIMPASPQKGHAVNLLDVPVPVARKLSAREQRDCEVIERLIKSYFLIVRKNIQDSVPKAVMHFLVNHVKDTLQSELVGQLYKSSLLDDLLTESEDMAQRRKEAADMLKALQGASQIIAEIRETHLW
Description: SH-SY5Y cells were treated with Drp1 peptides P110, P109, P112 or TAT47-57 only (1 μM). Because the interaction between Drp1 and Fis1 is transient and dynamic, cells were treated with the crosslinker, DSP, (0.75 mM for 30 min), as described in a previous study (Yoon et al., 2003, Mol Cell Biol 23:5409-5420). The cells were lysed in total cell lystes (50 mM Tris-HCl, pH 7.5, containing 150 mM NaCl, 1% Triton X-100, and protease inhibitor). Immunoprecipitates were analyzed by SDS-PAGE and immunoblotting with antibodies to Drp1, VDAC, and Fis1. VDAC was used as a loading control

“RRRQRRKKRGYGGDLLPRGS (RRRQRRKKRGYGGDLLPRGS-NH2) [P110, TAT47-57 carrier, GG linker, Drp1 region 110 (GTPase domain) peptide DLLPRGS; C-terminus C(O)-NH2]” was tested, and the “effect on GTPase activity of dynamin-1” value (dynamin-1) was “no effects”, the “Drp1 Ser616 phosphorylation” value (Drp1 Ser616; SH-SY5Y exposed to MPP+ or CCCP, FIG. 3F) was “abolished Ser616 phosphorylation” and the “Drp1 levels and phosphorylation under normal conditions” value (Drp1 Ser616; SH-SY5Y, no stressor) was “did not affect”. The “Drp1-induced ROS (superoxide) elevation in the mitochondria” value [1] was “abolished”, the “mitochondrial ROS (superoxide) production” value [2] was “reduced” and the “Drp1-Fis1 interaction in cultured SH-SY5Y neuronal cells” value (Drp1/Fis1 interaction) was “inhibited interaction of Drp1 and Fis1; also recorded: Inhibition”.
